The subject of series [1] is IL-1β-stimulated NO production in bovine chondrocyte pellets / ARC tissues. Briefly: Chondrocyte pellet / ARC culture model: total nitrite and nitrate assay. Conditions: at 5 μM. The class given is cell-based. The source says: (§1) Calf articular cartilage was obtained from the knee joints of eight to twelve month old animals and was processed within twenty-four hours after sacrifice. After removal of muscle and ligament, the cartilage was kept moist using phosphate buffer solution (PBS) to prevent tissue dehydration, and was aseptically peeled off from subchondral bone with a scalpel, and the cartilage pieces were further minced into smaller pieces (˜0.3-0.5×˜0.2-0.5 cm cubes). […] Chondrocytes were then enzymatically isolated from the tissue by incubation for overnight at 37° C. with gentle agitation in 0.2% collagenase in Dulbecco's modified eagle media (DMEM). After removal of tissue debris by filtration through cell strainer and the residual collagenase by 3× wash in PBS, cells were finally resuspended at a density of 2.5×10^6 cells/ml in chondrocyte medium. A 1 ml aliquot of the cell suspension was dispensed into either a 15 ml Falcon centrifuge tube or a 96 deep-well plate and centrifuged at 2000×g for five minutes. The chondrocyte pellets were incubated at 37° C. in a humidified atmosphere of 5% CO2 for two to three weeks with a medium change every other day.
(§2) As an alternative to using calf articular cartilage, a commercial Aliginate Recovered Chondrocytes (ARC) system was also used (Articular Engineering, LLC (Northbrook, Ill.)). Use of the commercial system cut down on labor and time in producing chondrocyte pellet. This system produced cartilaginous tissue in vitro using bovine chondrocytes. The first step consisted of culturing chondrocytes in alginate under conditions optimal for the formation of a cell-associated matrix (CM). The second step allowed these cells with their CM, after recovery, to rapidly form and become integrated into a solid mass of cartilage on a porous insert within two weeks.
(§3) Chondrocyte pellets were washed once with 1 ml of Chondrocyte Stimulation Medium and equilibrated in the same medium at room temperature for fifteen to thirty minutes. Compounds were dissolved in H2O, Ethanol or dimethyl sulfoxide (DMSO) (10^−2 M) according to suppliers' instructions and further diluted with Chondrocyte Stimulation Medium to the required concentrations. DMSO concentrations in the culture media should not exceed 1%; this concentration of DMSO has no effect on cartilage proteoglycan metabolism in response to cytokines.
(§4) The pellets were first treated with compounds at desired concentrations at 37° C. for one hour and then incubated for three to five days in the absence or presence of 10 ng/ml of IL-1β. At the end of the incubation, media and pellets were harvested and frozen for further analysis. Pellets were also fixed as needed in 4% (w/v) paraformaldehyde in PBS for histology analysis.
Nitrate/Nitrite levels were measured using the Griess reaction (Green L. C. et al., “Analysis of Nitrate, Nitrite, and [15N]nitrate in Biological Fluids,” Anal. Biochem. 126: 131-138 (1982)) with a Nitrate/Nitrite Colorimetric Assay Kit (Cayman Chemicals), the contents of which are incorporated herein by reference. The assay involved a simple two-step process. The first step involved conversion of nitrate in 50 μl of culture medium to nitrite utilizing nitrate reductase in a reaction volume of 100 μl at room temperature for two hours. The second step involved the addition of 50 μl of both Griess Reagent 1 and 2, which converted nitrite into a deep purple azo compound in ten minutes. Photometric measurement of the absorbance at 540 or 550 nm due to this azo chromophore accurately determined nitrite concentration. This assay kit cannot be used for RPMI (Roswell Park Memorial Institute) derived tissue culture medium due to interference with the colorimetric reaction.
To characterize the relative efficacies among different p38 MAP kinase inhibitors, dose-response curves were generated for both PGE2 and NO assays. […] After one hour of treatment, ARCs were stimulated with or without 7.5 ng/ml IL-1β and continued to incubate for five days before assay. […]

The test system of the next series is human cancer cell lines. Description: Cell proliferation in culture. The series is classed as cell-based.
For series [2], the system named is bovine chondrocyte pellets / ARC tissues stimulated with IL-1β. Description: Chondrocyte pellet / ARC culture model: GAG degradation assay. Conditions: Bos taurus, Chondrocyte; at 5 μM; read-out: GAG Release (inhibition), Pellet Assay. The class given is cell-based.
Description: A chondrocyte pellet culture model was developed for in vitro high throughput screening of therapeutic compounds for inhibition of IL-1β-stimulated matrix degradation. The chondrocyte pellet culture model can be used to detect various potential therapeutic compounds effective in blocking different processes caused by IL-1β stimulation. For example, IL-1β stimulation results in increased glycosaminoglycan (GAG) degradation, prostaglandin E2 (PGE2) synthesis and total nitrite/nitrate production. Compounds with different mechanisms of action may inhibit the increase of one or two or all three of these parameters. For this reason, screening by, for example, measuring only GAG release would be limited to detection of a specific class of inhibitors and may not detect compounds with diversified mechanisms of function which may be involved in inhibition of the IL-1 stimulated inflammatory process. The development of the chondrocyte pellet culture assay system in a 96-well plate made possible large-scale screening of potential therapeutic compounds with different mechanisms of action.
as §1, §2
This tissue is rich in cells surrounded by a cell-associated matrix that is degraded rapidly when the cells are exposed to IL-1. ARC tissues in 3 mm punches at delivery were first dispensed into a 96 deep-well plate, one punch per well, for compound treatment. The subsequent procedures were the same as those used for the chondrocyte pellets.
as §3
The pellets were first treated with compounds at desired concentrations at 37° C. for one hour and then incubated for three to five days in the absence or presence of 10 ng/ml of IL-1β. […]

Another series can be described thus: Water solubility. The series is classed as physicochemical.
In series [3] the test system is human tumor xenograft models. Description: Human tumor xenograft models. The class given is in vivo. The settings on record: single agent. (In general: A xenograft is tissue or cells of one species grown in another, often human tumour cells in immunodeficient mice.)
For series [4], the system named is bovine chondrocyte pellets / ARC tissues stimulated with IL-1β. Briefly: Chondrocyte pellet / ARC culture model: GAG degradation assay. The class given is cell-based. Conditions: at 5 μM, 7.5 ng/ml IL-1, five days.
The test system of series [5] is IL-1β-stimulated PGE2 synthesis in bovine chondrocyte pellets / ARC tissues. Description: Chondrocyte pellet / ARC culture model: Prostaglandin E2 assay. The class given is cell-based.
Description: as §1, §2, §3, §4
Prostaglandin E2 (PGE2) was measured with a STAT-Prostaglandin E2 EIA ELISA kit (Cayman Biochemicals). This assay is based on the competition between PGE2 from 50 μl samples and a PGE2-alkaline phosphatase conjugate for a limited amount of PGE2 monoclonal antibody in a reaction volume of 150 μl at room temperature for one hour. The antibody-PGE2 complex bound to a goat polyclonal anti-mouse IgG that had been previously attached to the well. After washing to remove any unbound reagents, para-nitrophenyl phosphate (pNPP) was added to the well. The product of this enzymatic reaction absorbs strongly at 412 nm. Because of the large range in response to IL-1β and other cytokines, PGE2 values were converted to log scale prior to doing t-tests.
To characterize the relative efficacies among different p38 MAP kinase inhibitors, dose-response curves were generated for both PGE2 and NO assays. […] After one hour of treatment, ARCs were stimulated with or without 7.5 ng/ml IL-1β and continued to incubate for five days before assay. The IL-1β-stimulated PGE2 synthesis or NO production was first calculated by subtraction of PGE2/NO levels in the absence of IL-1β from that in the presence of IL-1β. […]

In a further series the test system is chondrocytes. The series is classed as cell-based. The protocol:
The LDH activity was determined calorimetrically in an enzymatic test based on the conversion of lactic acid to pyruvate in the presence of chromagenic substrate tetrazolium salt INT that was reduced to formazan.

A further series concerns the target CDK1 (Homo sapiens, UniProt P06493). Briefly: CDK1 inhibition. The series is classed as biochemical.

≈ marks a conversion by molar mass, not a printed value. Where two headings read alike, the source gives them in different places.

A word on the inhibition: it is the relative decrease from the control value, in per cent. For orientation: solubility means the concentration that dissolves in the medium under given conditions.

Sequence of CDK1 (P06493 whole entry, species assumed): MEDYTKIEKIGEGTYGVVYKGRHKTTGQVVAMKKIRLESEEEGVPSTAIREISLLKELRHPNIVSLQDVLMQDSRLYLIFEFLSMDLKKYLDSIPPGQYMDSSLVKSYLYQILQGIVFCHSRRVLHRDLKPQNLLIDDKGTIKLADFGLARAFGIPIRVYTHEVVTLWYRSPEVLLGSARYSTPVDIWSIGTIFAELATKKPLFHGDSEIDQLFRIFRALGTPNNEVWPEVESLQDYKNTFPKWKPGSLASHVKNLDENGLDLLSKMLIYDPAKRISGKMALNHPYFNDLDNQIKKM
Sequence of CDK1 (P14635 whole entry partner, species assumed): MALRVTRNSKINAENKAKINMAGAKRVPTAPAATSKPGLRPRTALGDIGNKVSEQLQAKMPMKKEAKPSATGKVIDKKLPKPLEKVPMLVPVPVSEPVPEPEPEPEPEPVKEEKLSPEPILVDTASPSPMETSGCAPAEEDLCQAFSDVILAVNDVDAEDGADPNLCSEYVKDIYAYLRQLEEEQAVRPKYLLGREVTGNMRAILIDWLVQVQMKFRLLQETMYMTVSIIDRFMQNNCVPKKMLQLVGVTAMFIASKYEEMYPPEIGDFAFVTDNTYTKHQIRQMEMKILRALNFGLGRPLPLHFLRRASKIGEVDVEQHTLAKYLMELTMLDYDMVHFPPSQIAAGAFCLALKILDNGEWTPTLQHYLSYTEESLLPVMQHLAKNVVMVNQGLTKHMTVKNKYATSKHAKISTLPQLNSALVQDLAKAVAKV

On to `Nc1nc(Nc2ccc(S(N)(=O)=O)cc2)nn1C(=O)c1c(F)cccc1F` [JNJ 7706621, 4-[5-Amino-1-(2,6-difluoro-benzoyl)-1H-[1,2,4]triazol-3-ylamino]-benzenesulfonamide], for which the inhibition at 5 µM worked out at 100% in series [1] (Bos taurus, Chondrocyte) and 100% in series [2]. In series [1] (ARC tissues, 7.5 ng/ml IL-1, five days), the “NO production (in words)” value is on record as “completely blocked”. For the same compound, the “cell cycle effects (in words)” value in the series on human cancer cell lines is “induced G2M arrest, endoreduplication and apoptosis”. Also, the IC50 in the series with human cancer cell lines (Homo sapiens, in 9 cell lines, read-out: inhibits cell proliferation in culture, IC50) was 337 ± 123 nM; against CDK1, 9 nM. Besides, the solubility in the series “Water solubility” (at pH 7.4) was 17 µg/mL (≈ 43.1 µM); in the series “Water solubility” (water, simulated gastric fluid, at pH 2, read-out: solubility) it was 6 µg/mL (≈ 15.2 µM). The “antitumor activity (in words)” value in [3] is “single agent antitumor activity”. Moreover, the “GAG release (in words)” value in series [4] is reported as “completely blocked”. In addition, the “PGE2 Inhibition, Pellet Assay (in words)” value in series [5] (Table 3B) is reported as “No effect”. Moreover, the “PGE2 synthesis (in words)” value in series [5] (at 5 μM, ARC tissues, 7.5 ng/ml IL-1, five days) is listed as “little effect”. Also, the “cytotoxicity to chondrocytes, LDH (in words)” value in the series on chondrocytes is “little toxicity”.

(Values after patent US20090162351A1, “Transdiscal administration of inhibitors of p38 MAP kinase” (DePuy Spine, Inc., priority 2007, published 2009).)
